# From patent US20060258735A1, “1,3-Bis-(substituted-phenyl)-2-propen-1-ones and their use to treat VCAM-1 mediated disorders” (priority 2000, published 2006)
# Where a name gives a salt, the structure may show the parent alone. Read-outs that look alike come from different tables or passages of the source.
# What was measured:
# VCAM-1 = assay: In vitro VCAM-1 assay (TNF stimulated vascular endothelial cells); type: cell-based; conditions: Endothelial cell
# Method: The ability of a compound described herein to inhibit the expression of VCAM-1 in a host can be assessed using any known method, including that described in detail below.
# Two to four confluent P150 plates were trypsinized and the cells transferred to a 50 mL conical centrifuge tube. The cells were pelleted, resuspended and counted using the trypan blue exclusion method.
# Cells were resuspended at a concentration of 36,000 cells/mL and 1 mL was aliquoted per well.
# Cells were split into 24 well tissue culture plates. The cells in each well should be approximately 90-95% confluent by the following day. Cells should not be older than passage 8.
# Compounds were initially screened at 50 μM and 10 μM. A 50 mM stock solution for each compound was prepared in culture medium. The stock solution was diluted to 5 mM and 1 mM. When 10 μL of the 5 mM solution was added to the well (1 mL medium/well), the final concentration was 50 μM. Adding 10 μL of the 1 mM solution to the well provides a final concentration of 10 μM.
# Compounds which will not go into solution in culture medium were resuspended in DMSO at a concentration of 25 mM. The stock solution was then diluted to the final concentration in culture medium. The old medium was aspirated and 1 mL of the new medium with the compound was added. For example, if the final concentration was 50 μM, the 2 μL of the 25 mM stock was added per mL of culture medium. […] was diluted for lower concentrations.
# The compounds were added to the plate (each compound is done in duplicate). One plate was prepared for VCAM expression and one plate was prepared for ICAM expression.
# Immediately after the compounds weree added, TNF was added to each well 100 units/mL TNF was usually added to each well. Since each lot of TNF varies in the number of units, each new lot was titrated to determine the optimum concentration. Therefore this concentration changed. If 100 units/mL was being used, TNF was dilted to 10 units/μL and 10 μL added to each well.
# The plates were incubated at 37° C., 5% CO2 overnight (approximately 16 hours). The next day the plates were checked under the microscope to see if there were any visual signs of toxicity. Records were made of any cell death, debris, or morphology changes, as well as insoluble compounds (particulate or turbity).
# The degree of inhibition of the compounds of formula (I) was determined by the assays.
# MCP-1 = assay: In vitro MCP-1 activity assay (TNF-α stimulated endothelial cells, MCP-1 immunoassay); type: cell-based; conditions: Endothelial cell; human endothelial cells stimulated with TNF-α (1 ng/ml), approximately 16 hours, MCP-1 immunoassay of culture media
# Method: Cultured human endothelial cells were seeded in 96-well plates. On the following day cells were stimulated with TNF-α (1 ng/ml) in the presence or absence of compounds dissolved in DMSO. To establish a dose curve and IC50 for each compound, multiple concentrations in 2-fold increments were used. Cells were exposed to TNF-α and compounds for approximately 16 hours. The next day the cells were visually examined via light microscopy to score for visual signs of toxicity. Cell culture media, diluted 1:10, was analyzed by an MCP-1 immunoassay kit (R & D Systems). This assay is a sandwich immunoassay using immobilized anti-MCP-1 antibody in 96-well plate to capture secreted MCP-1 in cell culture media. Captured MCP-1 is subsequently detected with a horse radish peroxidase-conjugated anti-MCP-1 antibody for color development. Results are expressed as IC50 values (the amount of compound (µM) required to achieve a 50% reduction compared to control (cells stimulated with TNF-α only)).
# [1] = tested on: human aortic smooth muscle cells; assay: In vitro smooth muscle cell activity assay (3H-thymidine incorporation, serum stimulated); type: cell-based; conditions: human aortic smooth muscle cells stimulated with 5% serum
# Method: Cultured human aortic smooth muscle cells were seeded in 24-well plates. When cells reached 80% confluency, they were made quiescent by changing media to 0.2% serum (as compared to 5% serum in normal culture media) for 48 hours. The cells were then stimulated by addition of 5% serum in the presence or absence of compounds dissolved in DMSO. To establish a dose curve and IC50 for each compound, multiple concentrations in 5-fold increments were used. After 20 hr incubation, 3H-thymidine (0.5 μCi/per well) was added to the cells for 4 hours of labeling. Washed cells were then lysed in NaOH and, the amount of 3H-thymidine incorporation was determined. Results are expressed as IC50 values (the amount of compound (µM) required to achieve a 50% reduction compared to control (cells stimulated with 5% serum only)).
# [2] = TNF stimulated cells, overnight (approximately 16 hours), read-out: VCAM-1 IC50
# [3] = degree of inhibition of VCAM-1 expression, TNF stimulated endothelial cells, approximately 16 hours, read-out: VCAM-1 (µM)
Structure (SMILES),melting point,IC50 [1],also measured
COc1ccc(-c2cccs2)cc1C=CC(=O)c1ccc(Cl)c(Cl)c1O.[Na],> 260 °C,,
"COc1cc(OCC(=O)O)c(C=CC(=O)c2cc(OC)c(OC)c(OC)c2)cc1-c1cc2ccccc2s1 (as salt: sodium) [3-[5-(benzo[b]thien-2-yl)-2-carboxymethoxy-4-methoxyphenyl]-1-(3,4,5-trimethoxyphenyl)-2-propen-1-one]",255 to 257 °C,,
"COc1cc(C=CC(=O)c2cc(OC)c(OC)c(OC)c2)cc(Br)c1OC [3-(3-bromo-4,5-dimethoxyphenyl)-1-(3,4,5-trimethoxyphenyl)-2-propen-1-one]",,,IC50 (VCAM-1; [2]): 4000 nM
"COc1cc(OCC(=O)O)c(C=CC(=O)c2cc(OC)c(OC)c(OC)c2)cc1-c1cc2ccccc2s1 [3-[5-(benzo[b]thien-2-yl)-2-carboxymethoxy-4-methoxyphenyl]-1-(3,4,5-trimethoxyphenyl)-2-propen-1-one]",,,IC50 (VCAM-1; [2]): 8300 nM
"COc1cc(C=CC(=O)c2ccc(OC)c(OC)c2OC)cc(-c2cccs2)c1OC [Example 2, 3-[3,4-dimethoxy-5-(thien-2-yl)phenyl]-1-(2,3,4-trimethoxyphenyl)-2-propen-1-one]",94 to 97 °C,400 nM,IC50 (MCP-1): 5000 nM
"COc1cc(C(=O)C=Cc2cc(OC)c(OC)c(-c3cc4ccccc4s3)c2)cc(OC)c1OC [Example 4, 3-[5-(benzo[b]thien-2-yl)-3,4-dimethoxyphenyl]-1-(3,4,5-trimethoxyphenyl)-2-propen-1-one]",150 to 151 °C,,
"COc1cc(OC)c(-c2cccs2)cc1C=CC(=O)c1cc(OC)c(OC)c(OC)c1 [Example 5, 3-[2,4-dimethoxy-5-(thien-2-yl)phenyl]-1-(3,4,5-trimethoxyphenyl)-2-propen-1-one]",75 to 80 °C,450 nM,
"COc1cc(OC)c(-c2cc3ccccc3s2)cc1/C=C/C(=O)c1cc(OC)c(OC)c(OC)c1 [Example 6, 3-[5-(benzo[b]thien-2-yl)-2,4-dimethoxyphenyl]-1-(3,4,5-trimethoxyphenyl)-2-propen-1-one]",,330 nM,IC50 (MCP-1): > 50000 nM
"COc1ccc(-c2cccs2)cc1C=CC(=O)c1cc(OC)c(OC)c(OC)c1 [Example 7, 3-[2-methoxy-5-(thien-2-yl)phenyl]-1-(3,4,5-trimethoxyphenyl)-2-propen-1-one]",,1530 nM,IC50 (MCP-1): 8000 nM
"COc1ccc(-c2cccs2)cc1C=CC(=O)c1ccc(OC)c(OC)c1 [Example 9, 3-[2-methoxy-5-(thien-2-yl)phenyl]-1-(3,4-dimethoxyphenyl)-2-propen-1-one]",,1150 nM,IC50 (MCP-1): 10000 nM
"COc1ccc(C(=O)C=Cc2cc(-c3cccs3)ccc2OC)cc1 [Example 11, 3-[2-methoxy-5-(thien-2-yl)phenyl]-1-(4-methoxyphenyl)-2-propen-1-one]",,4530 nM,IC50 (MCP-1): 10000 nM
"COc1ccc(-c2cccs2)cc1C=CC(=O)c1cc(OC)c(OCc2cccs2)cc1OC [Example 17, 3-[2-methoxy-5-(thien-2-yl)phenyl]-1-(2,5-dimethoxy-4-(thien-2-ylmethoxy)phenyl)-2-propen-1-one]",54 to 73 °C,,
"COc1ccc(-c2cccs2)cc1C=CC(=O)c1ccc(I)cc1OC [Example 18, 3-[2-methoxy-5-(thien-2-yl)phenyl]-1-(4-iodo-2-methoxyphenyl)-2-propen-1-one]",150 to 155 °C,,
"COc1cccc(-c2ccc(C(=O)C=Cc3cc(-c4cccs4)ccc3OC)c(OC)c2)c1 [Example 21, 3-[2-methoxy-5-(thien-2-yl)phenyl]-1-[2-methoxy-4-(3-methoxyphenyl)phenyl]-2-propen-1-one]",97 to 107 °C,,
"COc1ccc(-c2cccs2)cc1C=CC(=O)c1ccc(F)c(F)c1 [Example 35, 3-[2-methoxy-5-(thien-2-yl)phenyl]-1-(3,4-difluorophenyl)-2-propen-1-one]",100 to 105 °C,,
"COc1ccc(-c2cccs2)cc1C=CC(=O)c1ccc(Cl)c(Cl)c1O [Example 36, 3-[2-methoxy-5-(thien-2-yl)phenyl]-1-(3,4-dichloro-2-hydroxyphenyl)-2-propen-1-one]",152 to 163 °C,,
"COc1cc(OC)c(-c2cccs2)cc1C=CC(=O)c1ccc(OC)c(OC)c1OC [Example 41, 3-[2,4-dimethoxy-5-(thien-2-yl)phenyl]-1-(2,3,4-trimethoxyphenyl)-2-propen-1-one]",,1250 nM,
"COc1cc(OC)c(-c2cc3ccccc3s2)cc1C=CC(=O)c1cc(OC)c(OCCN2CCOCC2)c(OC)c1 [Example 43, 3-[5-(benzo[b]thien-2-yl)-2,4-dimethoxyphenyl]-1-[3,5-dimethoxy-4-(2-morpholinoethoxy)phenyl]-2-propen-1-one]",111 to 113 °C,,
"COc1cc(OC)c(-c2cc3ccccc3s2)cc1C=CC(=O)c1cc(OC)c(OCC(=O)O)c(OC)c1 [Example 44, 3-[5-(benzo[b]thien-2-yl)-2,4-dimethoxyphenyl]-1-(4-carboxymethoxy-3,5-dimethoxyphenyl)-2-propen-1-one]",145 to 153 °C,,
"COc1cc(C=CC(=O)c2ccc(OC)c(OC)c2OC)cc(-c2cc3ccccc3s2)c1OC [Example 49, 3-[5-(benzo[b]thien-2-yl)-3,4-dimethoxyphenyl]-1-(2,3,4-trimethoxyphenyl)-2-propen-1-one]",120 to 124 °C,,
COc1cc(C=C2Cc3cc(-c4cccs4)ccc3C2=O)cc(OC)c1OC [Example 53],216 to 222 °C,,IC50 (VCAM-1; [3]): > 50000 nM
COc1cc2c(cc1OC)C(=O)C(=Cc1cc(OC)c(OC)c(-c3cccs3)c1)CC2 [Example 54],192 to 205 °C,,IC50 (VCAM-1; [3]): 2000 nM
COc1ccc(-c2cccs2)cc1C=C1Cc2cc(OC)c(OC)cc2C1=O [Example 55],164 to 172 °C,,IC50 (VCAM-1; [3]): > 50000 nM
COc1ccc(-c2cccs2)cc1/C=C/C(=O)c1ccc(-c2cccs2)cc1OC [Example 58],30 to 50 °C,,
"COc1cc(OC)c(-c2cc3ccccc3s2)cc1C=CC(=O)c1cc(OC)c(OCC(=O)[O-])c(OC)c1.[Na+] [Example 61, 3-[5-(Benzo[b]thien-2-yl)-2,4-dimethoxyphenyl]-1-(4-carboxymethoxy-3,5-dimethoxyphenyl)-2-propen-1-one, sodium salt]",191 to 196 °C (dec.),450 nM,
"COc1cc(OCC(=O)O)c(/C=C/C(=O)c2cc(OC)c(OC)c(OC)c2)cc1-c1cc2ccccc2s1 [Example 62, 3-[5-(Benzo[b]thien-2-yl)-2-carboxymethoxy-4-methoxyphenyl]-1-(3,4,5-trimethoxyphenyl)-2-propen-1-one, sodium salt]",,1250 nM,
